The values that follow come from patent publication US20240262806A1, “INHIBITORS OF NLRP3” (PTC THERAPEUTICS, INC., priority 2021, published 2024).

Structures are written as SMILES. Some results are limits rather than exact numbers.

This assay relates to NLRP3 inflammasome. As to the kind of experiment: IL-1β Secretion Assay (NLRP3-dependent IL-1β secretion in PMA-differentiated THP-1 cells, nigericin activation, HTRF). The class given is cell-based. The note with it: Homo sapiens, THP-1, THP-1 cells, 100 ng/mL PMA 24 h, compound 20 h, 2.5 μM Nigericin 3 h; read-out: IC50 IL-1β Inhibition. The procedure, abridged:
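IL-1β release, quantified by HTRF after nigericin activation of the NLRP3 inflammasome, was the read-out. A logistic fit of percent inhibition gave IC50.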
(Time-resolved FRET reads energy transfer from a long-lived donor to a nearby acceptor.)
Broadly, the IC50 is the point on the concentration scale where inhibition reaches its midpoint. Turning to `CCN1CCC[C@@H](Nc2nnc(-c3ccc(Br)cc3O)c3ccnn23)C1` [Compound I-453], the IC50 is less than 1 nM.

Take `Cc1cc2c(-c3c(O)cc(Cl)cc3F)nnc(N[C@@H]3CCCN(C)C3)n2n1` [Compound I-455]: the IC50 is less than 1 nM.

Regarding `COc1cc(O)c(-c2nnc(N[C@@H]3CCCN(C)C3)n3cccc23)c(F)c1` [Compound I-456], the IC50 is less than 1 nM.

On to `COc1cc(O)c(-c2nnc(N[C@@H]3CCCN(CCO)C3)n3cccc23)c(F)c1` [Compound I-457], for which the IC50 was in the range of 1 to 10 nM.

Take `FC(F)Oc1cc(C(F)(F)F)ccc1-c1nnc(N[C@H]2CCOC2)n2cccc12` [Compound I-458]: the concentration for half-maximal inhibition (IC50) was in the range of 100 to 300 nM.

In the case of `Oc1cc(C(F)(F)F)ccc1-c1nnc(N[C@H]2CCOC2)n2cccc12` [Compound I-459], the IC50 lay within 10 to 100 nM.

Turning to `CN1CC=C[C@@H](Nc2nnc(-c3ccc(C(F)(F)F)cc3O)c3cncn23)C1` [Compound I-460], the IC50 is 1 to 10 nM.

`CN1CCC[C@@H](Nc2nnc(-c3ccc(C(F)(F)F)cc3O)c3cnnn23)C1` [Compound I-461, (R)-2-(7-((1-Methylpiperidin-3-yl)amino)-[1,2,3]triazolo[1,5-d][1,2,4]triazin-4-yl)-5-(trifluoromethyl)phenol]: the IC50 lay in the range of 1 to 10 nM.

As to `Cc1cc(F)c(-c2nnc(N[C@@H]3C[C@@H](F)CN(C)C3)n3cccc23)c(OC(F)F)c1` [Compound I-462], the half-inhibitory concentration (IC50) fell in the range of 10 to 100 nM.

As to `Cc1cc(F)c(-c2nnc(N[C@@H]3CCCN(CCO)C3)n3cccc23)c(OC(F)F)c1` [Compound I-463], the IC50 fell in the range of 10 to 100 nM.

Consider `Cc1cc(F)c(-c2nnc(N[C@@H]3CCCOC3)n3cccc23)c(OC(F)F)c1` [Compound I-464], for which the IC50 is 100 to 300 nM.

For `Cc1cc(F)c(-c2nnc(N[C@H]3C[C@@](C)(O)C3)n3cccc23)c(OC(F)F)c1` [Compound I-465], the IC50 fell in the range of 100 to 300 nM.

Regarding `Cc1cc(O)c(-c2nnc(N[C@H]3C[C@@](C)(O)C3)n3cccc23)c(F)c1` [Compound I-466], the IC50 was in the range of 1 to 10 nM.

As to `C[C@]1(O)C[C@@H](Nc2nnc(-c3c(O)cc(C4CC4)cc3F)c3cccn23)C1` [Compound I-467], the IC50 is 1 to 10 nM.

With `CN1C[C@H](F)C[C@@H](Nc2nnc(-c3ccc(C(F)(F)F)cc3C(F)(F)F)c3cccn23)C1` [Compound I-468], the IC50 was in the range of 1 to 10 nM.

Regarding `FC(F)OCCN1CCC[C@@H](Nc2nnc(-c3ccc(C(F)(F)F)cc3C(F)(F)F)c3cccn23)C1` [Compound I-469], the IC50 fell in the range of 10 to 100 nM.

Consider `CC(C)(O)CN1CCC[C@@H](Nc2nnc(-c3ccc(C(F)(F)F)cc3C(F)(F)F)c3cccn23)C1` [Compound I-470], for which the IC50 was in the range of 10 to 100 nM.

`COc1ccc(-c2nnc(N[C@@H]3CCCN(C)C3)n3cccc23)c(OC(F)F)c1` [Compound I-471]: the IC50 is 1 to 10 nM.

Take `COc1ccc(-c2nnc(N[C@H]3C[C@](C)(O)C3)n3cccc23)c(OC(F)F)c1` [Compound I-472]: the IC50 lay in the range of 10 to 100 nM.

With `C[C@H](O)CNc1nnc(-c2ccc(C(F)(F)F)cc2O)c2cccn12` [Compound I-473], the IC50 was in the range of 10 to 100 nM.

`Oc1cc(C(F)(F)F)ccc1-c1nnc(N[C@@H]2CCOC2)n2cccc12` [Compound I-474]: the IC50 is 10 to 100 nM.

For the compound `Cc1cc(F)c(-c2nnc(N[C@@H]3CCCN(C4CCOCC4)C3)n3cccc23)c(OC(F)F)c1` [Compound I-475], the IC50 lay in the range of 10 to 100 nM.

As to `Cc1cc(F)c(-c2nnc(N[C@@H]3CCCN(CC(C)(C)O)C3)n3cccc23)c(OC(F)F)c1` [Compound I-476], the IC50 was 100 to 300 nM.

Take `Cc1cc(C)c(-c2nnc(N[C@@H]3CCCN(C)C3)n3cccc23)c(O)c1` [Compound I-477]: the IC50 lay in the range of 1 to 10 nM.

Take `CN1CC[C@H](F)[C@@H](Nc2nnc(-c3ccc(C(F)(F)F)cc3O)c3cccn23)C1` [Compound I-478]: the concentration for half-maximal inhibition (IC50) lay within 10 to 100 nM.

As for `CCN1CCC[C@@H](Nc2nnc(-c3ccc(C(F)(F)F)cc3O)c3cccn23)C1` [Compound I-479], the IC50 was less than 1 nM.

With `CC(C)N1CCC[C@@H](Nc2nnc(-c3ccc(C(F)(F)F)cc3O)c3cccn23)C1` [Compound I-480], the IC50 was in the range of 1 to 10 nM.

Consider `CN1C[C@H](F)C[C@@H](Nc2nnc(-c3c(O)cc(Cl)cc3F)c3cccn23)C1` [Compound I-481], for which the IC50 is 1 to 10 nM.

As to `OCCN1CCC[C@@H](Nc2nnc(-c3c(O)cc(Cl)cc3F)c3cccn23)C1` [Compound I-482], the IC50 was in the range of 1 to 10 nM.

Consider `Oc1cc(C(F)(F)F)ccc1-c1nnc(N[C@@H]2CCCN(CC(F)(F)F)C2)n2cccc12` [Compound I-483], for which the IC50 lay within 100 to 300 nM.

With `CN1CCC[C@@H](Nc2nnc(-c3ccc(Br)cc3O)c3cccn23)C1` [Compound I-484, (R)-5-Bromo-2-(4-((1-methylpiperidin-3-yl)amino)pyrrolo[1,2-d][1,2,4]triazin-1-yl)phenol], the IC50 lay in the range of 1 to 10 nM.

Turning to `CN1CCC[C@@H](Nc2nnc(-c3ccc(Cl)cc3OCC(F)(F)F)c3cccn23)C1` [Compound I-485, (R)-1-(4-Chloro-2-(2,2,2-trifluoroethoxy)phenyl)-N-(1-methylpiperidin-3-yl)pyrrolo[1,2-d][1,2,4]triazin-4-amine], the IC50 was in the range of 10 to 100 nM.

For `CN1CC[C@@H](F)[C@@H](Nc2nnc(-c3ccc(C(F)(F)F)cc3O)c3cccn23)C1` [Compound I-486, 2-(4-(((3S,4R)-4-Fluoro-1-methylpiperidin-3-yl)amino)pyrrolo[1,2-d][1,2,4]triazin-1-yl)-5-(trifluoromethyl)phenol], the IC50 is 10 to 100 nM.

With `CN1CCC[C@@H](Nc2nnc(-c3c(F)cc(C(F)(F)F)cc3OC(F)F)c3cccn23)C1` [Compound I-487], the IC50 lay in the range of 1 to 10 nM.

`Cc1cc(F)c(-c2nnc(N[C@@H]3CCCN(C4CCOC4)C3)n3cccc23)c(OC(F)F)c1` (stereo partly drawn) [Compound I-488]: the IC50 was 10 to 100 nM.

For the compound `Cc1cc(O)c(-c2nnc(N[C@@H]3CCCN(C4CCOC4)C3)n3cccc23)c(F)c1` (stereo partly drawn) [Compound I-489], the IC50 lay in the range of 1 to 10 nM.

For `Oc1cc(Br)ccc1-c1nnc(N[C@@H]2CCCNC2)n2cccc12` [Compound I-490, (R)-5-Bromo-2-(4-(piperidin-3-ylamino)pyrrolo[1,2-d][1,2,4]triazin-1-yl) phenol], the IC50 lay in the range of 1 to 10 nM.

Take `OCCN1CCC[C@@H](Nc2nnc(-c3ccc(C(F)(F)F)cc3C(F)(F)F)c3cccn23)C1` [Compound I-491]: the IC50 was in the range of 1 to 10 nM.

On to `C[C@@H](O)CNc1nnc(-c2ccc(C(F)(F)F)cc2C(F)(F)F)c2cccn12` [Compound I-492], for which the IC50 was 1 to 10 nM.

With `CC(C)N1CCC[C@@H](Nc2nnc(-c3ccc(C(F)(F)F)cc3OC(F)F)c3cccn23)C1` [Compound I-493], the IC50 lay within 1 to 10 nM.

Take `FC(F)Oc1cc(C(F)(F)F)ccc1-c1nnc(N[C@@H]2CCCN(CC(F)(F)F)C2)n2cccc12` [Compound I-494]: the IC50 is 100 to 300 nM.

On to `CCN1CCC[C@@H](Nc2nnc(-c3c(O)cc(C4CC4)cc3F)c3cccn23)C1` [Compound I-495], for which the IC50 is less than 1 nM.

On to `C[C@@H](O)CNc1nnc(-c2c(O)cc(C3CC3)cc2F)c2cccn12` [Compound I-496], for which the IC50 fell in the range of 10 to 100 nM.

As to `CCN1CCC[C@@H](Nc2nnc(-c3c(O)cc(C)cc3F)c3cccn23)C1` [Compound I-498], the IC50 is less than 1 nM.

On to `Cc1cc(O)c(-c2nnc(NC[C@@H](C)O)n3cccc23)c(F)c1` [Compound I-499], for which the IC50 lay in the range of 10 to 100 nM.
